Tests used:
Format in all cases: functional
A549 [1] = assay: Growth inhibition of human A549/ATCC cells incubated for 48 hrs by sulforhodamine B assay; settings: A549, 48 h
SNB-19 [2] = assay: Growth inhibition of human SNB19 cells incubated for 48 hrs by sulforhodamine B assay; settings: SNB-19, 48 h
SNB-75 = assay: Growth inhibition of human SNB75 cells incubated for 48 hrs by sulforhodamine B assay; settings: SNB-75, 48 h
SK-MEL-5 = assay: Growth inhibition of human SK-MEL-5 cells incubated for 48 hrs by sulforhodamine B assay; settings: SK-MEL-5, 48 h
PC-3 = assay: Growth inhibition of human PC3 cells incubated for 48 hrs by sulforhodamine B assay; settings: PC-3, 48 h
RPMI-8226 = assay: Growth inhibition of human RPMI8226 cells assessed as cell growth at 0.01 uM incubated for 48 hrs by sulforhodamine B assay relative to control; settings: RPMI-8226, 48 h, read-out: Activity
NCI-H23 = assay: Growth inhibition of human NCI-H23 cells assessed as cell growth at 0.01 uM incubated for 48 hrs by sulforhodamine B assay relative to control; settings: NCI-H23, 48 h, read-out: Activity
COLO 205 = assay: Growth inhibition of human COLO205 cells assessed as cell growth at 0.01 uM incubated for 48 hrs by sulforhodamine B assay relative to control; settings: COLO 205, 48 h, read-out: Activity
SW-620 = assay: Growth inhibition of human SW620 cells assessed as cell growth at 0.01 uM incubated for 48 hrs by sulforhodamine B assay relative to control; settings: SW-620, 48 h, read-out: Activity
Malme-3M [3] = assay: Growth inhibition of human MALME-3M cells assessed as cell growth at 0.01 uM incubated for 48 hrs by sulforhodamine B assay relative to control; settings: read-out: Activity
OVCAR-5 [4] = assay: Growth inhibition of human OVCAR5 cells assessed as cell growth at 0.01 uM incubated for 48 hrs by sulforhodamine B assay relative to control; settings: OVCAR-5, 48 h, read-out: Activity
MOLT-4 = assay: Growth inhibition of human MOLT4 cells assessed as cell growth at 0.1 uM incubated for 48 hrs by sulforhodamine B assay relative to control; settings: MOLT-4, 48 h, read-out: Activity
SR = assay: Growth inhibition of human SR cells assessed as cell growth at 0.1 uM incubated for 48 hrs by sulforhodamine B assay relative to control; settings: read-out: Activity
NCI-H322M = assay: Growth inhibition of human NCI-H322M cells assessed as cell growth at 0.1 uM incubated for 48 hrs by sulforhodamine B assay relative to control; settings: read-out: Activity
SF-268 [5] = assay: Growth inhibition of human SF268 cells assessed as cell growth at 0.1 uM incubated for 48 hrs by sulforhodamine B assay relative to control; settings: SF-268, 48 h, read-out: Activity
SNB-19 [6] = assay: Growth inhibition of human SNB19 cells assessed as cell growth at 0.1 uM incubated for 48 hrs by sulforhodamine B assay relative to control; settings: SNB-19, 48 h, read-out: Activity
Malme-3M [7] = assay: Growth inhibition of human MALME-3M cells assessed as cell growth at 0.1 uM incubated for 48 hrs by sulforhodamine B assay relative to control; settings: read-out: Activity
MDA-MB-231 = assay: Growth inhibition of human MDA-MB-231 cells assessed as cell growth at 0.1 uM incubated for 48 hrs by sulforhodamine B assay relative to control; settings: MDA-MB-231, 48 h, read-out: Activity
T47D = assay: Growth inhibition of human T47D cells assessed as cell growth at 0.1 uM incubated for 48 hrs by sulforhodamine B assay relative to control; settings: read-out: Activity
MDA-MB-468 = assay: Growth inhibition of human MDA-MB-468 cells assessed as cell growth at 0.1 uM incubated for 48 hrs by sulforhodamine B assay relative to control; settings: MDA-MB-468, 48 h, read-out: Activity
A549 [8] = assay: Growth inhibition of human A549/ATCC cells assessed as cell growth at 1 uM incubated for 48 hrs by sulforhodamine B assay relative to control; settings: A549, 48 h, read-out: Activity
EKVX [9] = assay: Growth inhibition of human EKVX cells assessed as cell growth at 1 uM incubated for 48 hrs by sulforhodamine B assay relative to control; settings: read-out: Activity
NCI-H460 = assay: Growth inhibition of human NCI-H460 cells assessed as cell growth at 1 uM incubated for 48 hrs by sulforhodamine B assay relative to control; settings: NCI-H460, 48 h, read-out: Activity
HCT-15 [10] = assay: Growth inhibition of human HCT15 cells assessed as cell growth at 1 uM incubated for 48 hrs by sulforhodamine B assay relative to control; settings: HCT-15, 48 h, read-out: Activity
OVCAR-5 [11] = assay: Growth inhibition of human OVCAR5 cells assessed as cell growth at 1 uM incubated for 48 hrs by sulforhodamine B assay relative to control; settings: OVCAR-5, 48 h, read-out: Activity
NCI/ADR-RES = assay: Growth inhibition of human NCI-ADR-RES cells assessed as cell growth at 1 uM incubated for 48 hrs by sulforhodamine B assay relative to control; settings: read-out: Activity
EKVX [12] = assay: Growth inhibition of human EKVX cells assessed as cell growth at 100 uM incubated for 48 hrs by sulforhodamine B assay relative to control; settings: read-out: Activity
HCT-15 [13] = assay: Growth inhibition of human HCT15 cells assessed as cell growth at 100 uM incubated for 48 hrs by sulforhodamine B assay relative to control; settings: HCT-15, 48 h, read-out: Activity
SF-268 [14] = assay: Growth inhibition of human SF268 cells assessed as cell growth at 100 uM incubated for 48 hrs by sulforhodamine B assay relative to control; settings: SF-268, 48 h, read-out: Activity
SF-295 = assay: Growth inhibition of human SF295 cells assessed as cell growth at 100 uM incubated for 48 hrs by sulforhodamine B assay relative to control; settings: SF-295, 48 h, read-out: Activity
M14 = assay: Growth inhibition of human M14 cells assessed as cell growth at 100 uM incubated for 48 hrs by sulforhodamine B assay relative to control; settings: M14, 48 h, read-out: Activity
DU-145 = assay: Growth inhibition of human DU145 cells assessed as cell growth at 100 uM incubated for 48 hrs by sulforhodamine B assay relative to control; settings: DU-145, 48 h, read-out: Activity
[15] = read-out: LC50 (the source's name)
[16] = read-out: pLC50 (the source's name) (converted)

## c1ccc2[nH]c(-c3ccc(-c4nccc5c4[nH]c4ccccc45)cc3)nc2c1
A549 [1]; read-out: GI50
  GI50: 4.15 µM
A549 [1]; read-out: LC50
  LC50 (concentration killing 50% of starting cells): 7.98 µM
A549 [1]; read-out: pGI50 (converted)
  GI50: 4.17 µM
A549 [1]; read-out: pLC50 (converted)
  LC50 (concentration killing 50% of starting cells): 79.4 µM
A549 [1]; read-out: pTGI (converted)
  TGI: 18.6 µM
SNB-19 [2]; read-out: GI50
  GI50: 4.21 µM
SNB-19 [2]; [15]
  CC50: > 1 µM
SNB-19 [2]; read-out: pGI50 (converted)
  GI50: 4.17 µM
SNB-19 [2]; [16]
  CC50: > 100 µM
SNB-19 [2]; read-out: pTGI (converted)
  TGI: 30.2 µM
SNB-75; read-out: GI50
  GI50: 1.57 µM
SNB-75; [15]
  CC50: 1.19 µM
SNB-75; read-out: TGI
  TGI: 4.08 µM
SNB-75; read-out: pGI50 (converted)
  GI50: 1.58 µM
SNB-75; [16]
  CC50: 12 µM
SNB-75; read-out: pTGI (converted)
  TGI: 4.07 µM
SK-MEL-5; [15]
  CC50: 4.42 µM
SK-MEL-5; read-out: pGI50 (converted)
  GI50: 3.72 µM
SK-MEL-5; [16]
  CC50: 44.7 µM
SK-MEL-5; read-out: pTGI (converted)
  TGI: 14.5 µM
PC-3; read-out: GI50
  GI50: 8.59 µM
PC-3; [15]
  CC50: 6.68 µM
PC-3; read-out: pGI50 (converted)
  GI50: 8.51 µM
PC-3; [16]
  CC50: 66.1 µM
PC-3; read-out: pTGI (converted)
  TGI: 25.1 µM
RPMI-8226
  growth at 0.01 µM: 106%
NCI-H23
  growth at 0.01 µM: 95%
COLO 205
  growth at 0.01 µM: 94%
SW-620
  growth at 0.01 µM: 103%
Malme-3M [3]
  growth at 0.01 µM: 93%
OVCAR-5 [4]
  growth at 0.01 µM: 94%
MOLT-4
  growth at 0.1 µM: 98%
SR
  growth at 0.1 µM: 93%
NCI-H322M
  growth at 0.1 µM: 101%
SF-268 [5]
  growth at 0.1 µM: 96%
SNB-19 [6]
  growth at 0.1 µM: 96%
Malme-3M [7]
  growth at 0.1 µM: 94%
MDA-MB-231
  growth at 0.1 µM: 94%
T47D
  growth at 0.1 µM: 89%
MDA-MB-468
  growth at 0.1 µM: 99%
A549 [8]
  growth at 1 µM: 96%
EKVX [9]
  growth at 1 µM: 93%
NCI-H460
  growth at 1 µM: 97%
HCT-15 [10]
  growth at 1 µM: 93%
OVCAR-5 [11]
  growth at 1 µM: 96%
NCI/ADR-RES
  growth at 1 µM: 98%
EKVX [12]
  growth at 100 µM: 44%
HCT-15 [13]
  growth at 100 µM: 71%
SF-268 [14]
  growth at 100 µM: 52%
SF-295
  growth at 100 µM: 71%
M14
  growth at 100 µM: 76%
DU-145
  growth at 100 µM: 72%

## c1ccc2c3c([nH]c2c1)C(c1ccc(C2NCCc4c2[nH]c2ccccc42)cc1)NCC3 (racemic)
A549 [1]; read-out: GI50
  GI50: 1.1 µM
A549 [1]; read-out: TGI
  TGI: 2.54 µM
A549 [1]; read-out: pGI50 (converted)
  GI50: 1.1 µM
A549 [1]; read-out: pTGI (converted)
  TGI: 2.51 µM
SNB-19 [2]; read-out: GI50
  GI50: 1.73 µM
SNB-19 [2]; [15]
  CC50: 7.25 µM
SNB-19 [2]; read-out: TGI
  TGI: 3.54 µM
SNB-19 [2]; read-out: pGI50 (converted)
  GI50: 1.74 µM
SNB-19 [2]; [16]
  CC50: 7.24 µM
SNB-19 [2]; read-out: pTGI (converted)
  TGI: 3.55 µM
SNB-75; [15]
  CC50: 4.59 µM
SNB-75; read-out: pGI50 (converted)
  GI50: 0.692 µM
SNB-75; [16]
  CC50: 4.57 µM
SNB-75; read-out: pTGI (converted)
  TGI: 2.09 µM
SK-MEL-5; read-out: GI50
  GI50: 1.7 µM
SK-MEL-5; [15]
  CC50: 5.75 µM
SK-MEL-5; read-out: TGI
  TGI: 3.13 µM
SK-MEL-5; read-out: pGI50 (converted)
  GI50: 1.7 µM
SK-MEL-5; [16]
  CC50: 5.75 µM
SK-MEL-5; read-out: pTGI (converted)
  TGI: 3.16 µM
PC-3; read-out: GI50
  GI50: 1.27 µM
PC-3; [15]
  CC50: 5.69 µM
PC-3; read-out: TGI
  TGI: 2.69 µM
PC-3; read-out: pGI50 (converted)
  GI50: 1.26 µM
PC-3; [16]
  CC50: 5.75 µM
PC-3; read-out: pTGI (converted)
  TGI: 2.69 µM
RPMI-8226
  growth at 0.01 µM: 102%
NCI-H23
  growth at 0.01 µM: 95%
COLO 205
  growth at 0.01 µM: 95%
SW-620
  growth at 0.01 µM: 101%
Malme-3M [3]
  growth at 0.01 µM: 89%
OVCAR-5 [4]
  growth at 0.01 µM: 91%
MOLT-4
  growth at 0.1 µM: 101%
SR
  growth at 0.1 µM: 106%
NCI-H322M
  growth at 0.1 µM: 91%
SF-268 [5]
  growth at 0.1 µM: 89%
SNB-19 [6]
  growth at 0.1 µM: 99%
Malme-3M [7]
  growth at 0.1 µM: 89%
MDA-MB-231
  growth at 0.1 µM: 97%
T47D
  growth at 0.1 µM: 86%
MDA-MB-468
  growth at 0.1 µM: 100%
A549 [8]
  growth at 1 µM: 56%
EKVX [9]
  growth at 1 µM: 70%
NCI-H460
  growth at 1 µM: 56%
HCT-15 [10]
  growth at 1 µM: 24%
OVCAR-5 [11]
  growth at 1 µM: 85%
NCI/ADR-RES
  growth at 1 µM: 78%
EKVX [12]
  growth at 100 µM: 81%
HCT-15 [13]
  growth at 100 µM: 90%
SF-268 [14]
  growth at 100 µM: 83%
SF-295
  growth at 100 µM: 89%
M14
  growth at 100 µM: 95%
DU-145
  growth at 100 µM: -94%
